Measured values from paper PMC3711671 (Nature chemical biology, 2012).

Legend:
[1] = biological target: recombinant PKM2 monomers and tetramers (Homo sapiens, UniProt P14618); assay type: biochemical; settings: 100 µM FBP
PKM2 in A549 cells = PKM2 in A549 cells (Homo sapiens, UniProt P14618); assay: Size exclusion chromatography of cell lysates; assay type: cell-based; settings: 100 μM pervanadate for 10 min
PKM2 in A549 cells, sequence (P14618 2-531 limits assumed): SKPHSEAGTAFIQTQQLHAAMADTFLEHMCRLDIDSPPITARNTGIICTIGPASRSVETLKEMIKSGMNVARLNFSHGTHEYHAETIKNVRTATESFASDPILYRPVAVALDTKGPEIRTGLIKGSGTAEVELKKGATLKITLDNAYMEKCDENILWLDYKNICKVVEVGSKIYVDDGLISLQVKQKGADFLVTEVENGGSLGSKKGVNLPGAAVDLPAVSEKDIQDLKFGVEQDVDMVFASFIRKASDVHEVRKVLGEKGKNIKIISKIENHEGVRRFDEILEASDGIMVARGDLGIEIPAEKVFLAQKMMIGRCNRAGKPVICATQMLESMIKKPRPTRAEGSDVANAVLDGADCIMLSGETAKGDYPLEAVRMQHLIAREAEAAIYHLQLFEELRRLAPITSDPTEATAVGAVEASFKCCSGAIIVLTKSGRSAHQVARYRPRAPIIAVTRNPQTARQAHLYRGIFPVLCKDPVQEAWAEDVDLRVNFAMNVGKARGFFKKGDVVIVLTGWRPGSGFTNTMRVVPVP

recombinant PKM2 monomers and tetramers, sequence (P14618 whole entry): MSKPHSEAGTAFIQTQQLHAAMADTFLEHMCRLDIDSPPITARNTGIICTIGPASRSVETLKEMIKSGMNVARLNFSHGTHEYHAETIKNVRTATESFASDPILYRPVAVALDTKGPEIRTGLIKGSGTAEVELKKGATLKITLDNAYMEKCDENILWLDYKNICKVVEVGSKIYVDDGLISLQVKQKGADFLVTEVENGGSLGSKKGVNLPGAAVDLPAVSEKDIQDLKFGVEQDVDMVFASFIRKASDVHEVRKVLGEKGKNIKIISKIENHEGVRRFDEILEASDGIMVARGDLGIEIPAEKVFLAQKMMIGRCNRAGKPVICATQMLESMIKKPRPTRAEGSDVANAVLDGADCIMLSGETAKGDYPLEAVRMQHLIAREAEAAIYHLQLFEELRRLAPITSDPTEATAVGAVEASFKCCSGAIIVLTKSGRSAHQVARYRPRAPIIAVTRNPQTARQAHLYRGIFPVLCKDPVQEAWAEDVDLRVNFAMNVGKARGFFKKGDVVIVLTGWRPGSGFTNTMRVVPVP

effect on PKM2 tetramer activity [1]	increase of activity of PKM2 monomers [1]	Compound	PKM2 subunit stoichiometry in cells after pervanadate (PKM2 in A549 cells)
minimal effects	approximately 70%	O=C(COP(=O)(O)O)[C@@H](O)[C@H](O)[C@H](O)COP(=O)(O)O [FBP, fructose-1,6-bisphosphate]	–
–	–	Pervanadate	disappearance of PKM2 tetramers
